ChEMBL document CHEMBL2417394, “Exquisite selectivity for human toll-like receptor 8 in substituted furo[2,3-c]quinolines” (J Med Chem, 2013)
The source made the active and inactive calls. No cut-off for these calls is given here.

Columns and labels:
Type in all cases: cell-based
[1] = molecular target: T1, Toll-like receptor 9 (Homo sapiens) (UniProt Q9NR96); assay: Antagonist activity at human TLR9 expressed in HEK293 cells co-transfected with MD2 and sAP assessed as inhibition of NF-kappaB activity by reporter gene assay
T1 sequence (whole entry): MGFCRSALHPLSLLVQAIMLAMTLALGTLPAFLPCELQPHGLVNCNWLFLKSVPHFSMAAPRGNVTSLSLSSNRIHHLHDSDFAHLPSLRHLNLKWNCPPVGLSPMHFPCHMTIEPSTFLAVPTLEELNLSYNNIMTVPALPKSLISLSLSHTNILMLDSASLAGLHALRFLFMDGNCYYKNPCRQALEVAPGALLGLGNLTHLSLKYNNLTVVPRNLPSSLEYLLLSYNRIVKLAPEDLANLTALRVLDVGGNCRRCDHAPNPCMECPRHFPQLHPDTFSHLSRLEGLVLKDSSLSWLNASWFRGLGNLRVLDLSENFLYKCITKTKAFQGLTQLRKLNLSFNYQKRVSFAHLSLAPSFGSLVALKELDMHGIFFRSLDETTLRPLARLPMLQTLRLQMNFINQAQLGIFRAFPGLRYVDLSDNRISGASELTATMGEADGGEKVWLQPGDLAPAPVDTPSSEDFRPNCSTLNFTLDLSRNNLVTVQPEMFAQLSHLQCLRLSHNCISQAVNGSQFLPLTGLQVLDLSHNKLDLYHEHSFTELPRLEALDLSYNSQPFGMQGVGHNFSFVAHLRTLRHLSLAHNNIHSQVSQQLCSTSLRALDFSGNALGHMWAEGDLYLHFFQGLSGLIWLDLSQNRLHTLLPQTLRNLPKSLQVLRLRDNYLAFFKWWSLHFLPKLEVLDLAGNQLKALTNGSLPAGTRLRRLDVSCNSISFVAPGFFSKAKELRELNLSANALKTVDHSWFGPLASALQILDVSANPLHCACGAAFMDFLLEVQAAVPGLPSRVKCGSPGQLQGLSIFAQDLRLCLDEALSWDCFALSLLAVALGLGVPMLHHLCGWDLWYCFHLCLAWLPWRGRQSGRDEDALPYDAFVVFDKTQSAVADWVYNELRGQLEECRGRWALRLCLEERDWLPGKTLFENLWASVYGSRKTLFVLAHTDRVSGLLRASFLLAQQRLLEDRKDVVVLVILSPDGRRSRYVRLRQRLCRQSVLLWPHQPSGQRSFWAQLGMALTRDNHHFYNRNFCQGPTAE

[2] = molecular target: T2, Toll-like receptor 7 (Homo sapiens) (UniProt Q9NYK1); assay: Antagonist activity at human TLR7 expressed in HEK293 cells co-transfected with MD2 and sAP assessed as inhibition of NF-kappaB activity by reporter gene assay
T2 sequence (whole entry): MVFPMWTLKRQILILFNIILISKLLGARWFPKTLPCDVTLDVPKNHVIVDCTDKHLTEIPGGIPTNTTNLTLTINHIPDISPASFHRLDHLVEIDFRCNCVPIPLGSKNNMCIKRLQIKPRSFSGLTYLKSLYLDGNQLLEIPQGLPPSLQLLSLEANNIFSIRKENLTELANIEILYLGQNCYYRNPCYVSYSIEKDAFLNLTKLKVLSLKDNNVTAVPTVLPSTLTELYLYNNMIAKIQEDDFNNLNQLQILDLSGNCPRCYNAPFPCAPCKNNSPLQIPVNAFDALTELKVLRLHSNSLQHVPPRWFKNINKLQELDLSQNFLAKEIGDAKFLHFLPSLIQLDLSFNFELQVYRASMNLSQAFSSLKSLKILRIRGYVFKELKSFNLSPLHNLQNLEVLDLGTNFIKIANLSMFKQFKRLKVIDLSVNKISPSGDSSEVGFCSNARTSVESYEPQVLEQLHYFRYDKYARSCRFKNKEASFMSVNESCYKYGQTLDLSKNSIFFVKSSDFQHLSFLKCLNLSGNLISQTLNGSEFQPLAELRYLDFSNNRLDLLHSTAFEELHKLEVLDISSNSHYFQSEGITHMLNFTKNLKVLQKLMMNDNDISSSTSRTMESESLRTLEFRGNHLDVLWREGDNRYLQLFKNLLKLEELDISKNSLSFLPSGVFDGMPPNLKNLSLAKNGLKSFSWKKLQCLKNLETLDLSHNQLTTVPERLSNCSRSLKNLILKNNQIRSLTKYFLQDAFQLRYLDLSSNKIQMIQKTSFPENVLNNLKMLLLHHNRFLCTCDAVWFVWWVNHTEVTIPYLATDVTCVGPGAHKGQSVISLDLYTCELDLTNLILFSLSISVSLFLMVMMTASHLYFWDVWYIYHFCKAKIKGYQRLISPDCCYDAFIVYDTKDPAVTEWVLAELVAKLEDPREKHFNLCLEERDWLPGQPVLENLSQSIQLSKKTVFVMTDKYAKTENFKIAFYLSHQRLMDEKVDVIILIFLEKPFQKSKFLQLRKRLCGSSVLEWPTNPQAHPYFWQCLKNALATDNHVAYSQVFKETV

[3] = molecular target: T1, Toll-like receptor 9 (Homo sapiens); assay: Modulation of human TLR9 expressed in HEK293 cells co-transfected with MD2 and sAP assessed as induction of NF-kappaB activity by reporter gene assay
[4] = molecular target: Toll-like receptor 5 (Homo sapiens) (UniProt O60602); assay: Modulation of human TLR5 expressed in HEK293 cells co-transfected with MD2 and sAP assessed as induction of NF-kappaB activity by reporter gene assay
[5] = molecular target: Toll-like receptor 4 (Homo sapiens) (UniProt O00206); assay: Modulation of human TLR4 expressed in HEK293 cells co-transfected with MD2 and sAP assessed as induction of NF-kappaB activity by reporter gene assay
[6] = molecular target: Toll-like receptor 3 (Homo sapiens) (UniProt O15455); assay: Modulation of human TLR3 expressed in HEK293 cells co-transfected with MD2 and sAP assessed as induction of NF-kappaB activity by reporter gene assay
Sequence of Toll-like receptor 3 (Homo sapiens) (O15455 whole entry): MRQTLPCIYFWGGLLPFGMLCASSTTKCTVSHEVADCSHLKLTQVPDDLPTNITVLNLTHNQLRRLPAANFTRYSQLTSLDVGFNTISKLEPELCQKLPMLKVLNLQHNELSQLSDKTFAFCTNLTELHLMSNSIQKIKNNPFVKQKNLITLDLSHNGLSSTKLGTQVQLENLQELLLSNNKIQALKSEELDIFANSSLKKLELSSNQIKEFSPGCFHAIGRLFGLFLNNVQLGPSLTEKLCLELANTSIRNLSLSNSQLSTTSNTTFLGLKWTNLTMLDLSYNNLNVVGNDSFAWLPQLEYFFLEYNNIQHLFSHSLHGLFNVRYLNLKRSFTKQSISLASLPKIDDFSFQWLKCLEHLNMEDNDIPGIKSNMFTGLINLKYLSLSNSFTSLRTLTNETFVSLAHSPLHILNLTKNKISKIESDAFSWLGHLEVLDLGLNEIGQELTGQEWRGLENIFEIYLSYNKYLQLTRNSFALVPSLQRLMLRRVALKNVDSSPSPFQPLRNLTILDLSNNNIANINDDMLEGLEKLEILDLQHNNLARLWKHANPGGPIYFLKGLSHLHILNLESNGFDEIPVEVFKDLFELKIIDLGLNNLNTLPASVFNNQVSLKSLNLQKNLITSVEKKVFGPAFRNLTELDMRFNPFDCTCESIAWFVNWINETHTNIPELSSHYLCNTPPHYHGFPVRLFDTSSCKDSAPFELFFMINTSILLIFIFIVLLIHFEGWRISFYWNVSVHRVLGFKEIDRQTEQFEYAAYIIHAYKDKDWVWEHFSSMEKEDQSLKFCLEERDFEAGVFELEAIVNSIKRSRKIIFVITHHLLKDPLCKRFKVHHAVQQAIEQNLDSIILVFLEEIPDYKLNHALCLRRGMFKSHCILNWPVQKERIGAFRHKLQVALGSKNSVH

Sequence of Toll-like receptor 5 (Homo sapiens) (O60602 whole entry): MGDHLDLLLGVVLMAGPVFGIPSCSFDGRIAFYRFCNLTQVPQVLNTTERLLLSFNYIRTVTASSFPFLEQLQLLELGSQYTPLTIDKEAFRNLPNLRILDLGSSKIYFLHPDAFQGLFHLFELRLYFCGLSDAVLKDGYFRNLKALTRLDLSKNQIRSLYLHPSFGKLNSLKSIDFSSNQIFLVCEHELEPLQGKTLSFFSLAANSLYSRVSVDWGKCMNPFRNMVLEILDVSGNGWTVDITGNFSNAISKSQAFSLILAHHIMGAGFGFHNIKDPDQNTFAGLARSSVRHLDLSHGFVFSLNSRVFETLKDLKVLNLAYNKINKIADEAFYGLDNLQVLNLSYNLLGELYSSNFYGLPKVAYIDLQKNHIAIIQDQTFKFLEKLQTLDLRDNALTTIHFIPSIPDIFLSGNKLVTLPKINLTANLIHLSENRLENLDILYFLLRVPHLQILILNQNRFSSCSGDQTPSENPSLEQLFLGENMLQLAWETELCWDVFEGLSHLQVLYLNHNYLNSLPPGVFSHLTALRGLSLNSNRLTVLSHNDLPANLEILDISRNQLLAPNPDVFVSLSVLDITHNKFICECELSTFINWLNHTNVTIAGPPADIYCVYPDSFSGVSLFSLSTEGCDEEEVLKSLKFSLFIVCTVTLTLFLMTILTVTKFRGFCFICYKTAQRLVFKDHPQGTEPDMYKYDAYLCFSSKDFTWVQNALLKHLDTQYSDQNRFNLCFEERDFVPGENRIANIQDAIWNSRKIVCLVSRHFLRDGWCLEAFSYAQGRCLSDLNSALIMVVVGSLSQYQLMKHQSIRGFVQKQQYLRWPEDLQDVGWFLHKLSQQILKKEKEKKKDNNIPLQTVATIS
Sequence of Toll-like receptor 4 (Homo sapiens) (O00206 whole entry): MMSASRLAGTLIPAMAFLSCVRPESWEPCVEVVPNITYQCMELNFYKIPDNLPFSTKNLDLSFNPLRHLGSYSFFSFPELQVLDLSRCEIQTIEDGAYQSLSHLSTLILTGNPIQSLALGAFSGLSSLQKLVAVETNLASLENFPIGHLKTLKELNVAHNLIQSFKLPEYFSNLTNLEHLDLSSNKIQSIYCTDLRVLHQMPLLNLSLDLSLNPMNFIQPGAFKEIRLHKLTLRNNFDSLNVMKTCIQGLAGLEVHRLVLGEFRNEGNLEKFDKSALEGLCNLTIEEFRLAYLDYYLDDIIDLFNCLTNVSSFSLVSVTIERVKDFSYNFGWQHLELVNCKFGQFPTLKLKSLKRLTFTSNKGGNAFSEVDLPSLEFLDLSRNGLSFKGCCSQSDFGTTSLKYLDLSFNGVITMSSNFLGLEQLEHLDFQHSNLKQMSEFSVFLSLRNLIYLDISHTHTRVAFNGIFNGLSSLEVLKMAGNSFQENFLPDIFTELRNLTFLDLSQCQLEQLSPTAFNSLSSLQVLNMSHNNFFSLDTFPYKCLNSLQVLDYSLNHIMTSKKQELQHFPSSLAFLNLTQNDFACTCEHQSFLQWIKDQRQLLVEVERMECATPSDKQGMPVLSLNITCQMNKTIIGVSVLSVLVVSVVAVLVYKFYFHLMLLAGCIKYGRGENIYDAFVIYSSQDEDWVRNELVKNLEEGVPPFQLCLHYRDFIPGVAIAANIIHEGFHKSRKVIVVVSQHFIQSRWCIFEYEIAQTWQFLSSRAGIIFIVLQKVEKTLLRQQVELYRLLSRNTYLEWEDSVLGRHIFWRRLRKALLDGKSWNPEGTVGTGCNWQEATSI

Row | Structure (SMILES) | inhibition [1] | inhibition [2] | Activity [3] | Activity [4] | Activity [5] | Activity [6]
1 | Nc1nc2ccccc2c2oc(-c3ccccc3)cc12 | inactive | inactive |  |  |  | 
2 | CCCCc1cc2c(nc(N)c3ccccc32)o1 | inactive | inactive | inactive | inactive | inactive | inactive
3 | NCCc1cc2c(o1)c(N)nc1ccccc12 |  |  | Active | Active | Active | Active

Further lines, with some results ahead:

Row | inhibition [1] | inhibition [2] | Structure (SMILES) | Activity [3] | Activity [4] | Activity [5] | Activity [6]
4 | inactive | inactive | CCCc1cc2c(N)nc3ccccc3c2o1 |  |  |  | 
5 | inactive | inactive | CCCCc1cc2c(N)nc3ccccc3c2o1 |  |  |  | 
